From patent US20100022521A1, “COMPOUNDS” (Hansa Metallwerke AG, priority 2005, published 2010)

Legend:
mGluR5 = mGluR5 (UniProt P31424); assay: MGluR5 receptor binding test ([3H]-M-MPEP displacement); set-up: species or system rat; conditions: radioligand [3H]-M-MPEP (2 nM); species not given; read-out: mGlu5 Ki
Method: MGluR5 Receptor Binding Tests
Rat cerebro-cortical membrane preparation was used to determine the binding characteristics of reference compounds and novel compounds to the rat mGluR5. The A18 cell line expressing hmGluR5a (purchased from Euroscreen) was used to determine binding characteristics of the chemical compounds to the human mGluR5a receptor. As radioligand [3H]-M-MPEP (2 nM) was used. The nonspecific binding was determined in the presence of 10 μM M-MPEP.

rat mGluR1 = molecular target: T1, rat mGluR1 (Rattus norvegicus, UniProt P23385); assay: MGluR1 receptor binding test ([3H]R214127 displacement); conditions: rat cerebellar membrane; radioligand [3H]R214127 (3 nM); read-out: mGlu1 Ki
T1 construct: rat cerebellar membrane preparation was used; from tissue; host or cells: rat cerebellum (membrane preparation)
Method: MGluR1 Receptor Binding Test
MGluR1 receptor binding testes were performed according to modified method of Lavreysen et al. (Mol. Pharm., 2003, 63, 1082). Based on the high homology between the human and rat mGluR1 receptors, rat cerebellar membrane preparation was used to determine the binding characteristics of reference compounds and novel compounds to the rat mGluR1. As radioligand [3H]R214127 (3 nM) was used and the nonspecific binding was determined in the presence of 1 μM of R214127.
IC-50 values were determined from displacement curves by nonlinear regression analysis and were converted by equation method of Cheng and Prusoff (Biochem. Pharmacol., 1973, 22, 3099) to Ki values.

T1 sequence (P23385 19-1199): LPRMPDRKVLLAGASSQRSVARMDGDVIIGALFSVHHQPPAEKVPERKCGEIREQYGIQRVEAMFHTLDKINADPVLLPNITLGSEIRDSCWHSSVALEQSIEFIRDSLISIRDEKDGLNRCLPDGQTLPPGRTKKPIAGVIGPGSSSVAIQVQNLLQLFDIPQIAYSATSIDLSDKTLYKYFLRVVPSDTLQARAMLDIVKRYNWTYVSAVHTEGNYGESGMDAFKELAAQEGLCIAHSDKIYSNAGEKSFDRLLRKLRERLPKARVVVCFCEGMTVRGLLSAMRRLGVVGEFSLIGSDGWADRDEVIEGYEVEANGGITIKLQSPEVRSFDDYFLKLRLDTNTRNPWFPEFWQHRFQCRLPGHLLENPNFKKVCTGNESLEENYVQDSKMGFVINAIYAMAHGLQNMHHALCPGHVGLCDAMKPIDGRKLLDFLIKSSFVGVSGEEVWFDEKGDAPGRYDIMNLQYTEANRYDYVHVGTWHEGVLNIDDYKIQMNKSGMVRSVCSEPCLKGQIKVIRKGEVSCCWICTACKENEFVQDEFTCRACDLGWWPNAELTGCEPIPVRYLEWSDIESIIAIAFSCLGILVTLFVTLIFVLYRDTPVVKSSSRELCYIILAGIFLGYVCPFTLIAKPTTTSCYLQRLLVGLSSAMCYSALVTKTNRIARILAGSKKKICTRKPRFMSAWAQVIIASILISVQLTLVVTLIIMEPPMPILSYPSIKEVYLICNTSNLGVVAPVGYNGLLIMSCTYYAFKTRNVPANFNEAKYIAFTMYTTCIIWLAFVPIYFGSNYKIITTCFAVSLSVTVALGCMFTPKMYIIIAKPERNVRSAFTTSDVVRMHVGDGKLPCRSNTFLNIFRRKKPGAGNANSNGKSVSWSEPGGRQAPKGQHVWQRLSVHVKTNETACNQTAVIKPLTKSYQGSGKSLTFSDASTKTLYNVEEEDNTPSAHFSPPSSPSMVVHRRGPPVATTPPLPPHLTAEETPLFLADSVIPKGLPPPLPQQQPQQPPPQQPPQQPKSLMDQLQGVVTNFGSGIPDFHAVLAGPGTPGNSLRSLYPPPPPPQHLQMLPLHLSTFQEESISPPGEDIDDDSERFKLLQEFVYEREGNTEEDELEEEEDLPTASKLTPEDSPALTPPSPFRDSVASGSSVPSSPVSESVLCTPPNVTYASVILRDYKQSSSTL

SMILES | Ki (mGluR5) | Ki (rat mGluR1)
Nc1cnc2sc(S(=O)(=O)c3ccc(Cl)cc3)c(-c3ccc(Cl)cc3)c2c1 [Compound 79, 2-(4-Chloro-benzenesulfonyl)-3-(4-chloro-phenyl)-thieno[2,3-b]pyridin-5-ylamine] | < 500 nM | < 500 nM
N#Cc1cccc(S(=O)(=O)c2sc3ncccc3c2-c2ccc(Cl)cc2)c1 [Compound 9] | < 500 nM | < 500 nM
O=S(=O)(Nc1ccc(Cl)cc1)c1sc2ncccc2c1-c1ccc(Cl)cc1 [Compound 15, 3-(4-Chlorophenyl)-thieno[2,3-b]pyridine-2-sulfonic acid (4-chloro-phenyl)-amide] | 500 to 1500 nM | > 1500 nM
O=S(=O)(c1cccs1)c1sc2ncccc2c1-c1ccc(Cl)cc1 [Compound 13] | 500 to 1500 nM | > 1500 nM
N#Cc1cccc(S(=O)(=O)c2sc3ncccc3c2-c2cccc(F)c2)c1 [Compound 52] | < 500 nM | < 500 nM
O=S(=O)(c1ccc(-c2ccccc2)cc1)c1sc2ncccc2c1-c1ccc(Cl)cc1 [Compound 18] | > 1500 nM | > 1500 nM
COc1cccc(-c2c(S(=O)(=O)c3cccc(C#N)c3)sc3ncccc23)c1 [Compound 67] | < 500 nM | < 500 nM
N#Cc1cccc(S(=O)(=O)c2sc3ncccc3c2-c2cccc(Cl)c2)c1 [Compound 38] | < 500 nM | < 500 nM
Cc1noc(C)c1S(=O)(=O)c1sc2ncccc2c1-c1ccc(Cl)cc1 [Compound 14] | > 1500 nM | > 1500 nM
O=S(=O)(c1cccc(F)c1)c1sc2ncccc2c1-c1ccc(F)cc1 [Compound 78] | < 500 nM | > 1500 nM
N#Cc1cc(F)cc(S(=O)(=O)c2sc3ncccc3c2-c2ccc(Cl)cc2)c1 [Compound 40] | < 500 nM | 500 to 1500 nM
O=S(=O)(NCc1ccc(Cl)cc1)c1sc2ncccc2c1-c1ccc(Cl)cc1 [Compound 21, 3-(4-Chlorophenyl)-thieno[2,3-b]pyridine-2-sulfonic acid 4-chloro-benzylamide] | > 1500 nM | > 1500 nM
Cc1ccc(-c2c(S(=O)(=O)c3ccc(Cl)cc3)sc3ncccc23)cc1 [Compound 35] | < 500 nM | > 1500 nM
O=S(=O)(c1cccnc1)c1sc2ncccc2c1-c1ccc(Cl)cc1 [Compound 10] | < 500 nM | > 1500 nM
